Our source for the TGI and GI50 values is PubChem BioAssay (NCI).

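Protocol summary: plate cells (96-well), add compound at 5 concentrations, incubate 48 h, interpolate endpoints linearly. The concentration for 50% growth inhibition is given as GI50. TGI denotes the concentration required for complete inhibition of growth.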 Bounds are passed on as bounds.

Holding throughout (assay): inhibition of tumour cell growth, NCI panel, 48 h
Experiment [1] deals with SW-620 colon.
For experiment [2], the system named is MDA-MB-231 breast.
For experiment [3], the system named is SNB-75 CNS.
Experiment [4] concerns HL-60(TB) leukemia.
The test system of experiment [5] is U251 CNS.
Experiment [6] has as its system HOP-62 NSCLC.
In experiment [7] the test system is HT29 colon.
Experiment [8] has as its system COLO 205 colon.
For experiment [9], the system named is TK-10 renal.
Experiment [10] relates to LOX IMVI melanoma.
The test system of experiment [11] is SF-295 CNS.
Experiment [12] deals with KM12 colon.

As for `O=P(O)(O)C(O)/C=C/c1ccccc1` (stereo not given), the TGI in [1], in [2], in [3], in experiment [4], in experiment [5] and in experiment [6] was over 100 µM in each case. The TGI in experiment [7], in [8], in [9], in experiment [10], in [11] and in [12] was over 100 µM in each case.

`Nc1nc(Cl)cc(NCC2(CO)CCC(Cc3ccccc3)C2)n1` (stereo not given): the TGI is over 100 µM in [1]; over 100 µM in experiment [2]; over 89.9 µM in experiment [3]; 26.1 µM in [4]; over 100 µM in [5]; over 100 µM in experiment [6]. Besides, the TGI in [7] was over 69.4 µM; in experiment [8], 28.6 µM; in experiment [9] it was over 77 µM; in experiment [10] it was 37.4 µM; in experiment [11] it was over 100 µM; in [12], 49.8 µM.

Consider `CN(C)CCNc1ccc([N+](=O)[O-])c2nc3ccccc3c(N)c12`, for which the TGI was 3.74 µM in experiment [1]; 6.89 µM in [2]; 3.96 µM in experiment [3]; 6.86 µM in [4]; over 10 µM in [5]; over 10 µM in experiment [6]. Further, the TGI is 3.07 µM in experiment [7]; 1.84 µM in experiment [8]; over 10 µM in experiment [9]; 2.11 µM in experiment [10]; 8.1 µM in experiment [11]; 1.75 µM in experiment [12].

Take `CC(=O)Nc1ccc(CNc2cc(=O)[nH]c(=O)[nH]2)cc1`: the TGI in experiment [1], in [2], in experiment [3], in [4], in experiment [5] and in [6] was over 100 µM throughout. The TGI in [7], in experiment [8], in experiment [9], in [10], in experiment [11] and in [12] was over 100 µM in each case.

For the molecule `COc1ccc2c3c1OC1C(=O)C=CC4(O)C(C2)NCC[C@@]314` (stereo not given in full), the TGI was 5.81 µM in experiment [1]; 9.01 µM in [2]; 4.32 µM in [3]; 4.4 µM in experiment [4]; 7.15 µM in experiment [5]; 9.87 µM in experiment [6]. In addition, the TGI in [7] stood at 11.7 µM; in experiment [8], 3.02 µM; in [9] it was 4.99 µM; in experiment [10], 5.15 µM; in [11], 14.9 µM; in [12] it was 8.59 µM.

As for `COC(=O)NCCc1[nH]nc2c1C(=O)C=C(Nc1ccccc1)C2=O`, the TGI was over 100 µM in [1]; 87.7 µM in experiment [2]; over 100 µM in experiment [3]; 46.3 µM in experiment [4]; 42.2 µM in experiment [5]; over 100 µM in experiment [6]. For the same molecule, the TGI was over 100 µM in experiment [7]; 37.5 µM in [8]; over 100 µM in [9]; 75.8 µM in experiment [10]; over 100 µM in experiment [11]; 62.2 µM in experiment [12].

On to `CC(=O)OC1CC2CCC1(C)C2(C)C` (stereo not given), for which the TGI in [1], in experiment [2], in experiment [3], in experiment [4], in experiment [5] and in [6] was over 100 µM in each case. In addition, the TGI in [7], in [8], in experiment [9], in experiment [10], in experiment [11] and in experiment [12] was over 100 µM in each case.

Regarding `O=C1C2C=CC1C1C(=O)OC(=O)C21` (stereo not given), the TGI in experiment [1], in [2], in [3], in experiment [4], in [5] and in experiment [6] was over 100 µM in each case. The TGI in experiment [7], in experiment [8], in experiment [9], in experiment [10], in experiment [11] and in experiment [12] was over 100 µM throughout.

For the molecule `CC(C)OP(=O)(CN(C)/C(F)=N\C(F)(F)F)OC(C)C`, the TGI in [1], in [2], in experiment [3], in experiment [4], in [5] and in experiment [6] was over 100 µM each time. The TGI in experiment [7], in experiment [8], in [9], in experiment [10], in experiment [11] and in [12] was over 100 µM in each case.

As to `COC(=O)C(CCC1C=CCC1)N=Cc1ccccc1` (stereo not given), the TGI in experiment [1], in experiment [2], in [3], in experiment [4], in experiment [5] and in [6] was over 100 µM in each case. In addition, the TGI in experiment [7], in experiment [8], in [9], in [10], in [11] and in experiment [12] was over 100 µM in each case.

With `O=C1OC(c2ccc(O)c(Cl)c2)(c2ccc(O)c(Cl)c2)c2ccc(Br)c3cccc1c23` (tested in a mixture with another compound), the TGI amounted to 41.1 µM in [1]; 29.4 µM in experiment [2]; 37.8 µM in experiment [3]; 41.8 µM in experiment [4]; 38.2 µM in [5]; 40.3 µM in experiment [6]. In addition, the TGI in experiment [7] worked out at 29.3 µM; in experiment [8], 23.1 µM; in experiment [9] it was 37 µM; in experiment [10], 40.3 µM; in experiment [11], 36.6 µM; in experiment [12], 42.2 µM. Also, the GI50 in experiment [4] was 17.5 µM.

`COC(=O)C1=Nc2c(C)nn(-c3ccccc3)c2N=C(c2ccc(C)cc2)C1`: the TGI in experiment [1], in [2], in [3], in experiment [4], in [5] and in experiment [6] was over 10 µM each time. Moreover, the TGI in experiment [7], in experiment [8], in [9], in experiment [10], in experiment [11] and in experiment [12] was over 10 µM each time.

With `CN1CCC2(CC1)C(=O)N(N1CCCCCC1)C(=O)N2c1ccccc1`, the TGI in experiment [1], in experiment [2], in experiment [3], in [4], in experiment [5] and in [6] was over 100 µM each time. Further, the TGI in [7], in experiment [8], in experiment [9], in experiment [10], in experiment [11] and in experiment [12] was over 100 µM throughout.

For `COc1cc(OC)c2c(c1OC)OCC(Cc1ccc(O)cc1)C2=O` (stereo not given), the TGI in experiment [1], in experiment [2], in experiment [3], in experiment [4], in experiment [5] and in experiment [6] was over 25 µM in each case. Besides, the TGI in [7], in [8], in experiment [9], in experiment [10], in experiment [11] and in experiment [12] was over 25 µM throughout.

On to `CCCN1C(=O)CCC2=C1CCc1c2ccc(Cl)c1Cl`, for which the TGI was over 100 µM in [1]; 48.7 µM in [2]; 33.9 µM in experiment [3]; 86.2 µM in experiment [4]; over 100 µM in [5]; over 100 µM in experiment [6]. The TGI in experiment [7] was over 100 µM; in experiment [8] it was over 100 µM; in experiment [9] it was 49.5 µM; in experiment [10], over 100 µM; in [11] it was over 100 µM; in experiment [12], over 100 µM.

Take `NC1C/C(=N\O)c2c(I)sc(I)c21` (stereo not given): the TGI in experiment [1] was 29.4 µM; in experiment [2], 39.3 µM; in experiment [3], 33.4 µM; in [4], over 100 µM; in [5] it was 37.4 µM; in experiment [6] it was 34.4 µM. Also, the TGI in [7] worked out at 48.8 µM; in experiment [8], 40.6 µM; in [9], 31.3 µM; in [10], 15.6 µM; in experiment [11], 31.8 µM; in [12], 27.7 µM.

As for `O=C(CN1CCN(C(=O)OCc2ccccc2)CCN(CC(=O)N2CCCCC2)CCN(C(=O)OCc2ccccc2)CC1)N1CCCCC1`, the TGI in [1] is over 53.5 µM; in experiment [2], 33.7 µM; in experiment [3] it was 16.5 µM; in experiment [4], over 35.4 µM; in experiment [5], 34.4 µM; in [6], 42.2 µM. For the same molecule, the TGI in [7] was found to be 28.6 µM; in experiment [8] it was 27.2 µM; in experiment [9], 26.5 µM; in experiment [10] it was 28.1 µM; in experiment [11], 41.1 µM; in [12] it was 46.3 µM.
